“Also recorded” adds a separate entry of the source.
Columns and labels:
Type in all cases: cell-based, human
KG1a cells = assay: In vitro apoptosis / LD50 assay (Annexin V) in KG1a cells; conditions: for LD50: KG1a cells (FIG. 7A), 72 h
Method: The acute myeloid leukaemia (AML) KG1a cell line was maintained in RPMI medium (Invitrogen, Paisley, UK) supplemented with 100 units/ml penicillin, 100 μg/ml streptomycin and 20% fetal calf serum. Cells were subsequently aliquoted (10^5 cells/100 μl) into 96-well plates and were incubated at 37° C. in a humidified 5% carbon dioxide atmosphere for 72 h in the presence of NUC-1031 or gemcitabine at concentrations that were experimentally determined for each compound. In addition, control cultures were carried out to which no drug was added. Cells were subsequently harvested by centrifugation and were analysed by flow cytometry using the Annexin V assay.
Cultured cells were harvested by centrifugation and then resuspended in 195 μl of calcium-rich buffer. Subsequently, 5 μl of Annexin V (Caltag Medsystems, Botolph Claydon, UK) was added to the cell suspension and cells were incubated in the dark for 10 mins prior to washing. Cells were finally resuspended in 190 μl of calcium-rich buffer together with 10 μl of propidium iodide. Apoptosis was assessed by dual-colour immunofluorescent flow cytometry as described previously. Subsequently LD50 values (the dose required to kill 50% of the cells in a culture) were calculated for each nucleoside analogue and ProTide.
(§1) The data obtained in these experiments were evaluated using one way ANOVA. All data was confirmed as Gaussian or a Gaussian approximation using the omnibus K2 test. LD50 values were calculated from the non-linear regression and line of best-fit analysis of the sigmoidal dose-response curves. All statistical analyses were performed using Graphpad Prism 6.0 software (Graphpad Software Inc., San Diego, Calif.).

[1] = system: Lin^−/CD34^+/CD38^−/CD123^+ cancer stem cells in KG1a cells; assay: Immunophenotypic quantification of the leukaemic stem cell compartment in KG1a cells; conditions: for proportion of cancer stem cells as compared to non-stem cancer cells after treatment: 72 h; for selectivity for cancer stem cells as opposed to non-stem cancer cells (summary): summary statement of the description
Method: The respective abilities of NUC-1031 and gemcitabine to target CSCs were investigated in the AML cell line KG1a.
KG1a cells were cultured for 72 hours in the presence of a wide range of concentrations of each nucleoside analogue and their respective ProTides. Cells were then harvested and labelled with a cocktail of anti-lineage antibodies (PE-cy7), anti-CD34 (FITC), anti-CD38 (PE) and anti-CD123 (PERCP cy5). The sub-population expressing a leukaemic stem cell (LSC) phenotype were subsequently identified and were expressed as a percentage of all viable cells left in the culture. The percentages of stem cells remaining were then plotted on a dose-response graph and the proportion of cancer stem cells was compared across the various concentrations of ProTides and their respective parent compounds, in order to determine if they preferentially target cancer stem cells.
as §1

[2] = system: primary acute myeloid leukaemia (AML) blasts; assay: In vitro cytotoxicity assay (LD50) in primary acute myeloid leukaemia cells; conditions: for LD50: primary AML blasts, 48 h, concentration required to kill 50% of the tumour cells in culture; for potency as compared to the respective parent compound (summary): summary statement of the description
Method: ProTide compounds, as defined herein, and the comparator ProTide compound NUC-1031 were assayed for their cytotoxic effects on primary cultures of acute myeloid leukaemia (AML) blasts. LD50 values (the concentration required to kill 50% of the tumour cells in culture) were calculated in respect of the ProTide compounds of the invention, and the parent compounds from which they are derived. […] The LD50 values of the ProTide compounds as defined herein (and their parent compounds) were compared with the comparator ProTide NUC-1031 and its parent compound gemcitabine.
Bone marrow samples were collected in ethylenediaminetetraacetic acid (EDTA) from newly diagnosed, previously untreated, acute myeloid leukaemia (AML) patients. AML blasts were enriched by density gradient centrifugation using Histopaque (Sigma, Poole, UK) and were subsequently maintained in Roswell Park Memorial Institute medium (RPMI) supplemented with 10% foetal bovine serum (FBS). Cells were treated with ProTide compounds (either as encompassed by the present invention, or the comparator ProTide NUC-1031) or with the ProTides' parent compounds at a range of experimental concentrations, and incubated for 48 h. All cultures were maintained at 37° C. in a 5% CO2 humidified atmosphere.
Cells were harvested and labelled with CD34-fluorescein isothiocyanate (FITC) (BD Biosciences, Buckingham, UK) and then resuspended in 200 μl of binding buffer containing 4 μl of annexin V labelled with allophycocyanin (APC) (eBioscience Ltd, Hatfield, UK). Apoptosis was quantified in the CD34^+ AML cells using an Accuri C6 flow cytometer (Becton Dickinson, CA, USA). At least 10,000 events were acquired and data were subsequently analysed using FlowJo software (Tree Star Inc., Ashland, Oreg., USA). All LD50 values (concentration of drug required to kill 50% of cells) were derived from the dose-response curves.

Row | Structure (SMILES) | LD50 (KG1a cells) [µM] | proportion of cancer stem cells as compared to non-stem cancer cells after treatment ([1]; KG1a cells) | LD50 [2] | potency relative to FUDR (times more potent) (KG1a cells; from LD50 values) | low concentration at which the selective reduction of cancer stem cells was still observed ([1]; KG1a cells) | selectivity for cancer stem cells as opposed to non-stem cancer cells (summary) [1] | potency as compared to the respective parent compound (summary) [2] | selectivity against cancer stem cells compared to the parent compound ([1]; KG1a cells)
1 | O=c1[nH]c(=O)n([C@H]2C[C@H](O)[C@@H](CO)O2)cc1F [FUDR] | 1.18 | reduction in the proportion of cancer stem cells | FUDR 1.18 μM | – | – | – | – | –
2 | CCCCCOC(=O)[C@H](C)NP(=O)(OC[C@H]1O[C@@H](n2cc(F)c(=O)[nH]c2=O)CC1O)Oc1cccc2ccccc12 (stereo partly drawn) [CPF-581] | 0.027 | reduction in the proportion of cancer stem cells | CPF 581 0.027 μM | over 50 times | approximately 8×10^−8 M | selectively target for cancer stem cells; also recorded: high selectivity for cancer stem cells | greater potency | –
3 | C[C@H](NP(=O)(OC[C@H]1O[C@@H](n2cc(F)c(=O)[nH]c2=O)CC1O)Oc1cccc2ccccc12)C(=O)OCCC(C)(C)C (stereo partly drawn) [CPF-585] | – | reduction in the proportion of cancer stem cells | CPF 585 0.79 μM | – | – | selectively target for cancer stem cells | – | –
4 | C[C@H](NP(=O)(OC[C@H]1O[C@@H](n2cnc3c(=S)[nH]c(N)nc32)[C@@H](O)C1O)Oc1ccccc1)C(=O)OCc1ccccc1 (stereo partly drawn) [CPF-782] | – | strong reduction in the proportion of cancer stem cells | CPF 782 0.82 μM | – | – | selectively target for cancer stem cells; also recorded: high selectivity for cancer stem cells | greater potency | most selective; also recorded: statistically significant increases in selectivity at certain concentrations

Source: patent US11400107B2, “Cancer treatments” (NuCana plc, priority 2016, dated 2022)
